Data from US8618286B2, “Benzoxazines, benzothiazines, and related compounds having NOS inhibitory activity” (NeurAxon, Inc., priority 2008, dated 2013).

Tests used:
[1] = target: Recombinant human inducible NOS (iNOS) (Homo sapiens (Human), UniProt P35228); test: Human iNOS enzyme assay (Protocol 1 or Protocol 2, radiometric); format: biochemical
Description: The human iNOS assay was carried by either one of the two protocols as described herein:
Recombinant human inducible NOS (iNOS) was produced in Baculovirus-infected Sf9 cells (ALEXIS). In a radiometric method, NO synthase activity was determined by measuring the conversion of [^3H]L-arginine to [^3H]L-citrulline. To measure iNOS, 10 μL of enzyme was added to 100 μL of 100 mM HEPES, pH=7.4, containing 1 mM CaCl2, 1 mM EDTA, 1 mM dithiothreitol, 1 μM FMN, 1 μM FAD, 10 μM tetrahydrobiopterin, 120 μM NADPH, and 100 nM CaM.
To measure enzyme inhibition, a 15 μL solution of a test substance was added to the enzyme assay solution, followed by a pre-incubation time of 15 min at RT. The reaction was initiated by addition of 20 μL L-arginine containing 0.25 μCi of [^3H] arginine/mL and 24 μM L-arginine. The total volume of the reaction mixture was 150 μL in every well. The reactions were carried out at 37° C. for 45 minutes, The reaction was stopped by adding 20 μL of ice-cold buffer containing 100 mM HEPES, 3 mM EGTA, 3 mM EDTA, pH=5.5. [^3H]L-citrulline was separated by DOWEX (ion-exchange resin DOWEX 50 W×8-400, SIGMA) and the DOWEX was removed by spinning at 12,000 g for 10 min in the centrifuge. An aliquot (70 μL) of the supernatant was added to 100 μL of scintillation fluid, and the samples were counted in a liquid scintillation counter (1450 Microbeta Jet, Wallac). Specific NOS activity was reported as the difference between the activity recovered from the test solution and that observed in a control sample containing 240 mM of the inhibitor L-NMMA. All assays were performed at least in duplicate. Standard deviations are 10% or less.
Primary stock solutions of each test compound were prepared in distilled water on the day of study to obtain a final concentration of 6 mM. For the determination of IC50 values, 11 test compound concentrations were prepared as 3-fold serial dilutions. Test compounds were tested in the iNOS assay at a concentration of 1000 μM to 0.0169 μM. The vehicle of the test compound or inhibitor, distilled water, was used as blank control. For non-specific activity, 100 μM L-NMMA was run in parallel as a control.
All incubations were performed in duplicate
The reaction mixture was prepared on ice by the addition of the following components to the appropriate well of a 1.0 mL 96-well polypropylene plate:
10 μL of test compound, reference inhibitor, or control (vehicle or L-NMMA) solution;
25 μL of Reaction Buffer (50 mM Tris-HCl, 6 μM BH4, 2 μM FMN, 2 μM FAD);
5 μL of 10 mM NADPH solution;
5 μL of 1 μM Calmodulin; and
The reaction mixture was pre-incubated at room temperature for 15 minutes. Following this pre-incubation, the reaction was initiated by the addition of 5 μL of the substrate L-arginine (1 μCi of [^3H]-L-Arginine+30 μM of unlabeled L-Arginine) to the reaction mixture. The total reaction volume was 60 μL. The assay plate containing the reaction mixtures was sealed and incubated at 37° C. for 30 minutes. At the end of this incubation period, 400 μL of ice-cold Stop Buffer (the EDTA in the Stop Buffer chelates all of the available calcium) was added to each well to stop the reaction. 100 μL of equilibrated resin pH 5.5 was added to each of the assay wells. The reaction samples were vortexed and transferred to spin cups, after-which they were centrifuged at 13,000 rpm for 30 sec. The spin cups were removed from the holder and […] (containing the unbound L-citrulline) were added to the appropriate wells of a 96-well liquid scintillation plate. 175 μL of scintillation fluid were also added to each well. The plate was sealed, and radioactivity was quantitated using a Microbeta liquid scintillation counter.
Data were analyzed using a Sigmoidal dose-response (variable slope) curve to determine the IC50 value of the test compound. Y=Bottom+(Top−Bottom)/(1+10^((Log IC50−X)*Hill Slope))

[2] = target: Nitric oxide synthase (endothelial, human recombinant) eNOS (Homo sapiens (Human), UniProt P29474); test: Human eNOS enzyme assay ([3H]-L-arginine to L-citrulline conversion); format: biochemical
Description: nNOS (Human), eNOS (Human) and iNOS (Human) Enzyme Assay
Primary stock solutions of test compounds at a concentration of 6 mM were prepared from the 2 to 5 mg powder. The primary stock solutions of each test compound were prepared freshly in distilled water on the day of study to obtain a final concentration of 6 mM. For determination of IC50 values, 12 test compound concentrations were prepared as 3-fold serial dilutions. Concentration range of test compound utilized for nNOS were 0.001 to 300 μM and for eNOS were 0.003 to 1000 μM. The vehicle of the test compound or inhibitor was used as blank control. For non-specific activity, 100 μM L-NMMA was used. Runs using the IC50 concentration of L-NAME were done in parallel as controls.
All incubations are performed in duplicate
The reaction mixture was prepared on ice by adding the following components with a micropipette to a polypropylene microcentrifuge tube: • 10 μL of test compound, inhibitor or control (vehicle or L-NMMA) solution; • 25 μL of Reaction Buffer {25 mM Tris-HCl, 0.6 μM BH4, 0.2 μM FMN, 0.2 μM FAD}; • 5 μL of 10 mM NADPH solution {1 mM} (freshly prepared in 10 mM Tris-HCl (pH 7.4); • 5 μL of 6 mM CaCl2 {600 W}; • 5 μL of 1 mM Calmodulin {100 W}; and • 5 μL of 0.02 μg/μL nNOS or 0.12 μg/μL eNOS.
The above reaction mixture was pre-incubated at room temperature for 15 mins.
The reaction was started by the addition of the substrate (in 5 μL containing 1 μCi of [^3H]-L-Arginine+2.5 μM of unlabeled L-Arginine) to the reaction mixture. Total reaction volume is 60 μL.
The reaction was mixed using a vortex mixer and incubate the above reaction mixture at 37° C. in an incubator for 30 minutes.
To stop the reaction, 400 μL of ice-cold Stop Buffer was added at the end of the incubation period.
The reaction was then mixed using a vortex mixer, and the reaction samples were transferred to spin cups, which were centrifuged using a microcentrifuge, at 13,000 rpm for 30 sec. at room temperature.
The spin cups were removed from the holder, 450 μL of eluate (containing the unbound L-citrulline) were transferred to scintillation vials. 3 mL of scintillation fluid were added and the radioactivity was quantified in a liquid scintillation counter.
Data was analyzed using a Sigmoidal dose-response (variable slope) curve to determine the IC50 value of the test compound. Y=Bottom+(Top−Bottom)/(1+10^((Log IC50−X)*Hill Slope))

`CNCCN1CCSc2cc(NC(=N)c3cccs3)ccc21` [Compound 8, N-(4-(2-(methylamino)ethyl)-3,4-dihydro-2H-benzo[b][1,4]thiazin-7-yl)thiophene-2-carboximidamide] gave an IC50 [1] of 70.6 µM and an IC50 [2] of 33.5 µM.
